Experimental data reported in patent US20240190883A1, “KRAS PROTEIN DEGRADERS, PHARMACEUTICAL COMPOSITIONS THEREOF, AND THEIR THERAPEUTIC APPLICATIONS” (BioTheryX, Inc., priority 2021, published 2024).

What was measured:
Type in all cases: cell-based
Lovo (G13D) cells = experiment: Cell viability assay (CELLTITER-GLO), Lovo cells; conditions: Homo sapiens, 72 h, 3 days incubation, 2.5% fetal bovine serum, read-out: Inhibition of Cancerous Cells IC50 (μM) Lovo (G13D)
Description: (§1) H358, H23, SW48, and AsPC-1 cells were cultured in RPMI 1640 media supplemented with 10% fetal bovine serum, streptomycin, and penicillin. Lovo and SW480 cells were cultured in DMEM media supplemented with 10% fetal bovine serum, streptomycin, and penicillin. The cell lines were plated in their respective medium supplemented with 2.5% fetal bovine serum, streptomycin, and penicillin. All cell lines were plated in white walled 96-well plates at 2,000 cells/well or 384-well plates at 500 cells/well, except Lovo, which were plated at 4,000 or 1,000 cells/well, respectively. The cells were incubated in DMSO (control) or a compound for 3 days at 37° C. under 5% C02. A CELLTITER-GLO® reagent (100 μL) was then added to each well. After a 10 min incubation with shaking, luminescence was measured using an ENVISION® multimode plate reader. IC50 values are summarized in Table 1 and percentages of inhibition are summarized in Table 2, where compound T1 is 2-(4-(2-methyl-3,5-diphenylpyrazolo[1,5-a]pyrimidin-7-yl)piperazin-1-yl)ethan-1-ol.

SW480 (G12V) cells = experiment: Cell viability assay (CELLTITER-GLO), SW480 cells; conditions: Homo sapiens, 72 h, 3 days incubation, 2.5% fetal bovine serum, read-out: Inhibition of Cancerous Cells IC50 (μM) SW480 (G12V)
Description: as §1

H358 (G12C) cells = experiment: Cell viability assay (CELLTITER-GLO), H358 cells; conditions: Homo sapiens, NCI-H358, 72 h, 3 days incubation, 2.5% fetal bovine serum, read-out: Inhibition of Cancerous Cells IC50 (μM) H358 (G12C)
Description: as §1

SW48 (wt) cells = experiment: Cell viability assay (CELLTITER-GLO), SW48 cells; conditions: Homo sapiens, 72 h, 3 days incubation, 2.5% fetal bovine serum, read-out: Inhibition of Cancerous Cells IC50 (μM) SW48 (wt)
Description: as §1

H23 cells = experiment: Cell viability assay (CELLTITER-GLO), H23 cells; conditions: Homo sapiens, NCI-H23, 72 h, 3 days incubation, 2.5% fetal bovine serum, read-out: Inhibition of Cancerous Cells IC50 (μM) H23
Description: as §1

KRAS protein [1] = target: T1, KRAS protein (Homo sapiens, UniProt P01116, G13D); experiment: HIBIT degradation assay, H647 cells; conditions: 24 h, HiBiT signal normalized to CTG signal; for Effect on KRAS Protein Degradation, H647, 3 μM: compound at 3 μM; for Effect on KRAS Protein Degradation, H647, 5 μM: compound at 5 μM
T1 construct: engineered to express a Hobbit-tagged endogenous KRAS protein; endogenous in cells; host or cells: H647, endogenous KRAS locus engineered with a HiBiT tag
T1 sequence (P01116 1-185 isoform P01116-2 G13D limits assumed): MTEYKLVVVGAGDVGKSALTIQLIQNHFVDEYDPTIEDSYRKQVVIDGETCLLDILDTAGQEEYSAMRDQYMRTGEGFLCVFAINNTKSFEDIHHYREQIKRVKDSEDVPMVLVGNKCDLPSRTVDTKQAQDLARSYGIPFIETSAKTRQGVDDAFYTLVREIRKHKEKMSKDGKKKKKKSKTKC
Description: (§2) HEK293, MIA PaCa-2, AsPc-1, SW620, and H647 cells were engineered to express a […] endogenous KRAS protein. The HEK293 and MIA PaCa-2 cells were cultured in DMEM media supplemented with 10% fetal bovine serum, streptomycin, and penicillin. The AsPc-1, SW620, and H647 were cultured in RPMI media supplemented with 10% fetal bovine serum, streptomycin, and penicillin. The cells were seeded in white walled 96-well plates at 20,000 cells/well in 100 μL culture media in duplicate plates. After incubated at 37° C. under 5% CO2 overnight, the cells were treated with DMSO (control) or a compound, followed by the addition of 100 μL culture media to each well. After the cells were incubated for 24 h at 37° C. under 5% C02, 150 μL media were removed from each well and 50 μL NANOGLO-LGBIT lytic reagent were added to each well, and 50 μL CELLTITER-GLO (CTG) reagent was added to the duplicate plate. Following a 10-minute incubation with shaking, luminescence was measured using a Perkin Elmer ENVISION multimode plate reader. HiBiT signal was normalized to CTG signal. The results are summarized in Table 3, where “A” represents a percentage degradation value of no less than 50%; “B” represents a percentage degradation value of less than 50% and no less than 25%; “C” represents a percentage degradation value of less than 25% and no less than 10%; and “D” represents a percentage degradation value of less than 10%.

KRAS protein [2] = target: T2, KRAS protein (Homo sapiens, UniProt P01116); experiment: HIBIT degradation assay, HEK293 cells; conditions: 24 h, HiBiT signal normalized to CTG signal; for Effect on KRAS Protein Degradation, HEK293, 3 μM: compound at 3 μM; for Effect on KRAS Protein Degradation, HEK293, 5 μM: compound at 5 μM
T2 construct: engineered to express a Hobbit-tagged endogenous KRAS protein; endogenous in cells; host or cells: HEK293, endogenous KRAS locus engineered with a HiBiT tag
T2 sequence (P01116 1-188 isoform P01116-2): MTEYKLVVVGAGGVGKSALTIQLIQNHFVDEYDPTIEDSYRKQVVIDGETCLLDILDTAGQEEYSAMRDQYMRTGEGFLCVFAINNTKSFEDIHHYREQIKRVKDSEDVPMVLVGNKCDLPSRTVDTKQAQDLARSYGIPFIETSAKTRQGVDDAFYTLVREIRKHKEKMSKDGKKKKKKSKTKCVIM
Description: as §2

KRAS protein [3] = target: T3, KRAS protein (Homo sapiens, UniProt P01116, G12D); experiment: HIBIT degradation assay, AsPC-1 cells; conditions: 24 h, HiBiT signal normalized to CTG signal; for Effect on KRAS Protein Degradation, AsPC-1, 3 μM: compound at 3 μM; for Effect on KRAS Protein Degradation, AsPC-1, 5 μM: compound at 5 μM
T3 construct: engineered to express a Hobbit-tagged endogenous KRAS protein; endogenous in cells; host or cells: AsPC-1, endogenous KRAS locus engineered with a HiBiT tag
T3 sequence (P01116 1-188 isoform P01116-2 G12D): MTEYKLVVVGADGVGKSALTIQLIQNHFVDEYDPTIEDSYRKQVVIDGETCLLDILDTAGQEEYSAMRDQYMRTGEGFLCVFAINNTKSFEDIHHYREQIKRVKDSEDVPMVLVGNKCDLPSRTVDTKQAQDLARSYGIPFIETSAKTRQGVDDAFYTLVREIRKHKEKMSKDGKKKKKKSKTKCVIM
Description: as §2

Molm-13 cells = experiment: Cell viability assay, inhibition of Molm-13 cells; conditions: Homo sapiens; for inhibition at 1 µM: compound at 1 μM; for inhibition at 3 µM: compound at 3 μM
Description: [Worded in the source for another cell line; this cell line is reported under the same test.] as §1

KRAS protein [4] = target: T4, KRAS protein (Homo sapiens, UniProt P01116, G12C); experiment: HIBIT degradation assay, MIA PaCa-2 cells; conditions: 24 h, HiBiT signal normalized to CTG signal
T4 construct: engineered to express a Hobbit-tagged endogenous KRAS protein; endogenous in cells; host or cells: MIA PaCa-2, endogenous KRAS locus engineered with a HiBiT tag
T4 sequence (P01116 whole entry G12C): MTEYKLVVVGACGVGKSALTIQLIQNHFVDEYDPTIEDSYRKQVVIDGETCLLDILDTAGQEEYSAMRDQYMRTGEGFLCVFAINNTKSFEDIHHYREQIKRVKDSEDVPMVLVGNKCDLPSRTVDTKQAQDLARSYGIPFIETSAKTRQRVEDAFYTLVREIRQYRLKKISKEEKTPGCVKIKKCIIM
Description: as §2

SMILES	IC50 (Lovo (G13D) cells)	IC50 (SW480 (G12V) cells)	IC50 (H358 (G12C) cells)	IC50 (SW48 (wt) cells)	IC50 (H23 cells)	Effect on KRAS Protein Degradation, H647, 3 μM (KRAS protein [1])	Effect on KRAS Protein Degradation, H647, 5 μM (KRAS protein [1])	Effect on KRAS Protein Degradation, HEK293, 3 μM (KRAS protein [2])	Effect on KRAS Protein Degradation, HEK293, 5 μM (KRAS protein [2])	Effect on KRAS Protein Degradation, AsPC-1, 3 μM (KRAS protein [3])	Effect on KRAS Protein Degradation, AsPC-1, 5 μM (KRAS protein [3])	inhibition at 1 µM (Molm-13 cells)	inhibition at 3 µM (Molm-13 cells)	Effect on KRAS Protein Degradation, MIA PaCa-2, 3 μM (KRAS protein [4]; compound at 3 μM)	Effect on KRAS Protein Degradation, MIA PaCa-2, 5 μM (KRAS protein [4]; compound at 5 μM)	inhibition at 10 µM (Molm-13 cells; compound at 10 μM)
Cc1nn2c(N3CCN(CCO)CC3)cc(-c3cccc(CCCCCCCN4CCC(Nc5cccc(NC6CCC(=O)NC6=O)c5)CC4)c3)nc2c1-c1ccccc1 (centres unmarked) [Compound A1, 3-((3-((1-(7-(3-(7-(4-(2-Hydroxyethyl)piperazin-1-yl)-2-methyl-3-phenyl-pyrazolo[1,5-a]pyrimidin-5-yl)phenyl)heptyl)piperidin-4-yl)amino)phenyl)amino)piperidine-2,6-dione]	0.43 µM	0.4 µM	0.9 µM	0.54 µM	0.81 µM											
Cc1nn2c(N3CCN(CCO)CC3)cc(-c3ccccc3)nc2c1-c1cccc(CCCN2CCN(C(=O)CNc3cccc4c(N5CCC(=O)NC5=O)nn(C)c34)CC2)c1 [Compound D16, 1-(7-((2-(4-(3-(3-(7-(4-(2-Hydroxyethyl)piperazin-1-yl)-2-methyl-5-phenyl-pyrazolo[1,5-a]pyrimidin-3-yl)phenyl)propyl)piperazin-1-yl)-2-oxoethyl)amino)-1-methyl-1H-indazol-3-yl)dihydropyrimidine-2,4(1H,3H)-dione]								C (a percentage degradation value of less than 25% and no less than 10%)	C (a percentage degradation value of less than 25% and no less than 10%)	C (a percentage degradation value of less than 25% and no less than 10%)	D (a percentage degradation value of less than 10%)					
Cc1nn2c(N3CCN(CCO)CC3)cc(-c3ccccc3)nc2c1-c1cccc(CCCCCN2CCN(C(=O)CNc3cccc4c(N5CCC(=O)NC5=O)nn(C)c34)CC2)c1 [Compound D17, 1-(7-((2-(4-(5-(3-(7-(4-(2-hydroxyethyl)piperazin-1-yl)-2-methyl-5-phenyl-pyrazolo[1,5-a]pyrimidin-3-yl)phenyl)pentyl)piperazin-1-yl)-2-oxoethyl)amino)-1-methyl-1H-indazol-3-yl)dihydropyrimidine-2,4(1H,3H)-dione]						C (a percentage degradation value of less than 25% and no less than 10%)		C (a percentage degradation value of less than 25% and no less than 10%)	C (a percentage degradation value of less than 25% and no less than 10%)	B (a percentage degradation value of less than 50% and no less than 25%)	C (a percentage degradation value of less than 25% and no less than 10%)	34%	99%			
Cc1nn2c(N3CCN(CCO)CC3)cc(-c3ccccc3)nc2c1-c1cccc(CCCCCCCN2CCN(C(=O)CNc3cccc4c(N5CCC(=O)NC5=O)nn(C)c34)CC2)c1 [Compound D18, 1-(7-((2-(4-(7-(3-(7-(4-(2-hydroxyethyl)piperazin-1-yl)-2-methyl-5-phenyl-pyrazolo[1,5-a]pyrimidin-3-yl)phenyl)heptyl)piperazin-1-yl)-2-oxoethyl)amino)-1-methyl-1H-indazol-3-yl)dihydropyrimidine-2,4(1H,3H)-dione]						D (a percentage degradation value of less than 10%)	C (a percentage degradation value of less than 25% and no less than 10%)			B (a percentage degradation value of less than 50% and no less than 25%)	C (a percentage degradation value of less than 25% and no less than 10%)	14%	95%			
Cc1nn2c(N3CCN(CCO)CC3)cc(-c3ccccc3)nc2c1-c1cccc(CCCN2CCN(C(=O)COc3cccc4c(C5CCC(=O)NC5=O)nn(C)c34)CC2)c1 (centres unmarked) [Compound D20, 3-(7-(2-(4-(3-(3-(7-(4-(2-Hydroxyethyl)piperazin-1-yl)-2-methyl-5-phenyl-pyrazolo[1,5-a]pyrimidin-3-yl)phenyl)propyl)piperazin-1-yl)-2-oxoethoxy)-1-methyl-1H-indazol-3-yl)piperidine-2,6-dione]										D (a percentage degradation value of less than 10%)	C (a percentage degradation value of less than 25% and no less than 10%)	0%	71%	C (a percentage degradation value of less than 25% and no less than 10%)	C (a percentage degradation value of less than 25% and no less than 10%)	

Continued, in another order:

IC50 (Lovo (G13D) cells)	IC50 (SW480 (G12V) cells)	IC50 (H358 (G12C) cells)	IC50 (SW48 (wt) cells)	SMILES	IC50 (H23 cells)	Effect on KRAS Protein Degradation, H647, 3 μM (KRAS protein [1])	Effect on KRAS Protein Degradation, H647, 5 μM (KRAS protein [1])	Effect on KRAS Protein Degradation, HEK293, 3 μM (KRAS protein [2])	Effect on KRAS Protein Degradation, HEK293, 5 μM (KRAS protein [2])	Effect on KRAS Protein Degradation, AsPC-1, 3 μM (KRAS protein [3])	Effect on KRAS Protein Degradation, AsPC-1, 5 μM (KRAS protein [3])	inhibition at 1 µM (Molm-13 cells)	inhibition at 3 µM (Molm-13 cells)	Effect on KRAS Protein Degradation, MIA PaCa-2, 3 μM (KRAS protein [4]; compound at 3 μM)	Effect on KRAS Protein Degradation, MIA PaCa-2, 5 μM (KRAS protein [4]; compound at 5 μM)	inhibition at 10 µM (Molm-13 cells; compound at 10 μM)
0.31 µM	0.42 µM	0.52 µM	0.45 µM	Cc1nn2c(N3CCN(CCO)CC3)cc(-c3cccc(CCCCCN4CCN(C(=O)CNc5cccc(C6CCC(=O)NC6=O)c5)CC4)c3)nc2c1-c1ccccc1 (centres unmarked) [Compound B5, 3-(3-((2-(4-(5-(3-(7-(4-(2-hydroxyethyl)piperazin-1-yl)-2-methyl-3-phenyl-pyrazolo[1,5-a]pyrimidin-5-yl)phenyl)pentyl)piperazin-1-yl)-2-oxoethyl)amino)phenyl)-piperidine-2,6-dione]	0.83 µM	D (a percentage degradation value of less than 10%)	A (a percentage degradation value of no less than 50%)									
0.27 µM	0.42 µM	0.49 µM	0.5 µM	Cc1nn2c(N3CCN(CCO)CC3)cc(-c3cccc(CCCCCN4CCN(C(=O)CNc5cccc6c(C7CCC(=O)NC7=O)nn(C)c56)CC4)c3)nc2c1-c1ccccc1 (centres unmarked) [Compound D5, 3-(7-((2-(4-(5-(3-(7-(4-(2-hydroxyethyl)piperazin-1-yl)-2-methyl-3-phenyl-pyrazolo[1,5-a]pyrimidin-5-yl)phenyl)pentyl)piperazin-1-yl)-2-oxoethyl)amino)-1-methyl-1H-indazol-3-yl)piperidine-2,6-dione]	0.95 µM											
1.3 µM	0.7 µM	2.4 µM	1.9 µM	Cc1nn2c(N3CCN(CCO)CC3)cc(-c3ccccc3)nc2c1-c1ccccc1 [Compound T1, 2-(4-(2-methyl-3,5-diphenylpyrazolo[1,5-a]pyrimidin-7-yl)piperazin-1-yl)ethan-1-ol, reference compound]	2.5 µM							0%				99%
